Article PMC3812073, “Partial Deletion of Chromosome 8 β-defensin Cluster Confers Sperm Dysfunction and Infertility in Male Mice” (PLoS Genetics, 2013)
No end group written: not given here.

Experiments:
[1] = system: Pseudomonas aeruginosa O1 (PAO1); test: Antimicrobial killing of Pseudomonas aeruginosa PAO1 by synthetic mature β-defensin peptides; type: cell-based; conditions: for bacterial killing after TCEP reduction: reduced peptide (TCEP), 50 µg/ml peptide, PAO1, 3 hours, compared with oxidised form
Source text: The DefbΔ9/DefbΔ9 mice homozygous for the deletion have no obvious gross phenotype compared to littermate controls after 8 generations of backcrossing to C57Bl/6. No change in size, weight or appearance is apparent, except mice carrying the mutant allele have paler tails by virtue of the Agouti transgene included in the MICER vector (data not shown). β-defensins are classically known as antimicrobial peptides, so we tested the mature peptides in vitro against a Gram-negative bacterium (Pseudomonas aeruginosa, PAO1). […] Despite deleting the expression of these antimicrobials from the homozygous mice, there is no indication that the mutant mice have an increased inflammatory profile under normal animal housing conditions. There is no elevation in levels of TNF-α or IL-6 or type I interferon in sera from mutant versus wild-type mice (Figure 1D).
Supplementary file pgen.1003826.s003.tif: Figure S3 Level of antimicrobial killing against Pseudomonas aeruginosa O1 (PAO1) by the reduced and oxidized peptides. β-defensins with the mature peptide sequences (as shown in Table 1) were purchased from Almac Sciences (Scotland) Limited in an oxidised form. They were tested for their ability to kill PAO1 in 3 hours at various concentrations of peptide. […] TCEP alone had no effect on bacterial survival (data not shown). […] (TIF) Click here for additional data file.

wild-type cauda sperm [2] = test: A23187-induced acrosome reaction of wild-type sperm, Coomassie G250 stain; type: cell-based, mouse; conditions: wild-type (+/+) sperm treated with A23187, T90 minutes, 157 of 293 sperm, untreated control 14%
Description: (§1) We treated sperm from wild-type littermates (+/+) with A23187 to release calcium and induce AR, and examined their ultrastructure by TEM at the T90 minutes time point (Figure S4).
Cauda sperm were isolated in modified Tyrode's medium, fixed in 4% formalin for 15 mins. Sperm were spun down (1000× g 5 mins) then washed once in 0.1 M ammonium acetate (pH 9.0) and resuspended in a final volume of approximately 50 µl. An aliquot of 20 µl was smeared on glass slide, allowed to air dry then stained for 2 mins with a solution of 0.22% Coomassie blue G250 (wt/v) in 50% methanol (v/v) and 10% acetic acid (v/v). Slides were washed 3 times in distilled water, air-dried and mounted in glycerol. Acrosome integrity of at least 150 sperm per animal was assessed by the presence or absence of an intense blue stain on the anterior sperm head (mean ± SD; n = 3 pairs).

wild-type cauda sperm [3] = test: TEM of microtubule structure in tails of A23187-treated wild-type sperm; type: cell-based, mouse; conditions: wild-type cauda sperm treated with A23187 (1 µM in the Figure S4 legend), T90 minutes, 101/195 tails in focus, control 3%
Description: as §1
Epididymides and decapsulated testis were fixed with 2% paraformaldehyde (PFA), 2.5% glutaraldehyde in 0.1M sodium cacodylate buffer + 0.04% CaCl2 for 30 mins at room temperature. The tissues were cut roughly into 1 mm cubes and further fixed overnight at 4°C. Fixed cells were rinsed in 0.1M sodium cacodylate buffer + 0.4% CaCl2, post-fixed in 1% osmium tetroxide (OsO4, Agar Scientific) for one hour, and dehydrated in sequential steps of acetone (25%, 50%, 75% and 100% twice) prior to impregnation in increasing concentrations (25%, 50%, 75%) of resin (TAAB Lab Equipment) in acetone followed by 100% resin for 3 times, placed in moulds and polymerised at 60°C for 24 hrs. Ultrathin sections of 70 nm were subsequently cut using a diamond knife on a Leica EM UC7 ultramicrotome. Sections were stretched with chloroform to eliminate compression and mounted on Pioloform filmed copper grids prior to staining with 1% aqueous uranyl acetate and lead citrate (Leica). They were viewed on a Philips CM100 Compustage (FEI) Transmission Electron Microscope with images collected using an AMT CCD camera (Deben). […]

sperm = conditions: 10 µM A23187; cited from earlier work
Source text: We sought to understand why sperm from the DefbΔ9/DefbΔ9 have this precocious capacitation and increased spontaneous AR. Sperm require an increase in intracellular calcium, which causes hyperactivation and allows progression to the AR. Mice deleted for any of the components of the calcium CatSper (cation channels of sperm) channel are infertile due to their lack of ability to transport calcium into the cell, resulting in an inability to undergo capacitation, hyperactivation and prepare sperm for the AR [32]. Conversely, sperm exposed to a ten-fold increase in cauda epididymal calcium concent ...

O=C(O)CCP(CCC(=O)O)CCC(=O)O [TCEP, Tris (2-carboxyethyl) phosphine]
effect on bacterial survival ([1]; TCEP alone, without peptide, data not shown): no effect

HPGTFHVRIKCMPKMTAVFGDNCSFYSSMGDLCNNTKSVCCMVPVRMDNI (disulfide (positions not given here)) [Defb50, mature synthetic mouse β-defensin peptide, missing the second cysteine of the motif]
antimicrobial activity in either oxidised or reduced form ([1]; PAO1, Figure S3): active antimicrobials
antimicrobial activity, oxidised form ([1]; oxidised peptide, PAO1, Figure S3): poor antimicrobial activity
bacterial killing after TCEP reduction [1]: improves

CNc1ccc2oc(C[C@H]3O[C@@]4(CC[C@H]3C)O[C@H]([C@H](C)C(=O)c3ccc[nH]3)[C@H](C)C[C@H]4C)nc2c1C(=O)O [A23187]
acrosome reacted sperm (wild-type cauda sperm [2]): 53%
sperm with microtubule disruption (abnormal tail score) (wild-type cauda sperm [3]): 52%
acrosome reaction (sperm): will undergo the AR
sperm motility (sperm): immotile

FDEKCSRVNGRCTAS-CLKNEELVALC-QKNLKCCVTVQPCGKSKSNQSDEGSGHMGTWG (disulfide) [Defb15, mature synthetic mouse β-defensin peptide]
bacterial killing after TCEP reduction [1]: unremarkable
